The values below come from PubChem BioAssay AID1745844 (Carcinogenic Potency Database (CPDB), 2022).

This series deals with rodent lifetime carcinogenesis bioassay, tumor incidence TD50. Kind of series: carcinogenic potency in animals, long-term in vivo studies, CPDB compilation (AID 1745844).

Molecules are shown by their SMILES. Active and inactive are the calls of the source. No rule for the calls is given here.

The term TD50 denotes the dose at which the toxic effect under study appears in half of the subjects. As to `OC(Cn1cncn1)(Cn1cncn1)c1ccc(F)cc1F`, the carcinogen call by setting is: (mouse, strain Charles River CD1, females, in feed, site: any site (literature study), lesion: several types, types named in the paper, dosed 104 weeks, study length 104 weeks) “negative (inactive)”; (mouse, strain Charles River CD1, females, in feed, site: liver, lesion: hepatocellular carcinoma, dosed 104 weeks, study length 104 weeks) “negative (inactive)”; (mouse, strain Charles River CD1, males, in feed, site: liver, lesion: hepatocellular carcinoma, dosed 104 weeks, study length 104 weeks) “negative (inactive)”; (rat, strain Charles River CD (Sprague-Dawley), females, in feed, site: any site (literature study), lesion: several types, types named in the paper, dosed 104 weeks, study length 104 weeks) “negative (inactive)”; (rat, strain Charles River CD (Sprague-Dawley), females, in feed, site: liver, lesion: hepatocellular carcinoma, dosed 104 weeks, study length 104 weeks) “negative (inactive)”; (rat, strain Charles River CD (Sprague-Dawley), females, in feed, site: mammary gland, lesion: carcinoma, dosed 104 weeks, study length 104 weeks) “negative (inactive)”. For the same compound, the carcinogen call reads like this: (rat, strain Charles River CD (Sprague-Dawley), females, in feed, site: mammary gland, lesion: fibroadenoma, dosed 104 weeks, study length 104 weeks) “negative (inactive)”; (rat, strain Charles River CD (Sprague-Dawley), females, in feed, site: mammary gland, lesion: several types, types named in the paper, dosed 104 weeks, study length 104 weeks) “negative (inactive)”; (rat, strain Charles River CD (Sprague-Dawley), males, in feed, site: adrenal medulla, lesion: pheochromocytoma, dosed 104 weeks, study length 104 weeks) “negative (inactive)”; (rat, strain Charles River CD (Sprague-Dawley), males, in feed, site: any site (literature study), lesion: several types, types named in the paper, dosed 104 weeks, study length 104 weeks) “negative (inactive)”. The TD50 is 129 mg/kg/day (inactive) (mouse, strain Charles River CD1, females, in feed, site: liver, lesion: hepatocellular adenoma, dosed 104 weeks, study length 104 weeks); 239 mg/kg/day (inactive) (mouse, strain Charles River CD1, males, in feed, site: any site (literature study), lesion: several types, types named in the paper, dosed 104 weeks, study length 104 weeks); 144 mg/kg/day (inactive) (mouse, strain Charles River CD1, males, in feed, site: liver, lesion: hepatocellular adenoma, dosed 104 weeks, study length 104 weeks); 298 mg/kg/day (inactive) (rat, strain Charles River CD (Sprague-Dawley), females, in feed, site: liver, lesion: hepatocellular adenoma, dosed 104 weeks, study length 104 weeks); 412 mg/kg/day (inactive) (rat, strain Charles River CD (Sprague-Dawley), females, in feed, site: mammary gland, lesion: adenoma, dosed 104 weeks, study length 104 weeks); 80.7 mg/kg/day (rat, strain Charles River CD (Sprague-Dawley), males, in feed, site: liver, lesion: hepatocellular adenoma, dosed 104 weeks, study length 104 weeks).
Consider `COc1cc(NC(=O)C(N=Nc2ccc(-c3ccc(N=NC(C(C)=O)C(=O)Nc4cc(OC)c(Cl)cc4OC)c(Cl)c3)cc2Cl)C(C)=O)c(OC)cc1Cl` (stereo not drawn), for which, for the setting “mouse, strain NMRI, both sexes, in feed, site: any site (literature study), lesion: one or several types, types not named, dosed 104 weeks, study length 104 weeks”, the carcinogen call is “negative (inactive)”. The TD50 (rat, strain Sprague-Dawley, both sexes, in feed, site: any site (literature study), lesion: one or several types, types not named, dosed 104 weeks, study length 104 weeks) was 3560 mg/kg/day (inactive).
Take `Cc1ccc(Cl)cc1N`: the TD50 was 143 mg/kg/day (mouse, strain B6C3F1, females, in feed, site: all sites + liver, lesion: hemangiosarcoma + hepatocellular adenoma + hepatocellular carcinoma, dosed 78 weeks, study length 91 weeks); 373 mg/kg/day (mouse, strain B6C3F1, females, in feed, site: all sites, lesion: hemangiosarcoma, dosed 78 weeks, study length 91 weeks); 164 mg/kg/day (mouse, strain B6C3F1, females, in feed, site: any site (literature study), lesion: several types, types named in the paper, dosed 78 weeks, study length 91 weeks); 180 mg/kg/day (mouse, strain B6C3F1, females, in feed, site: liver, lesion: hepatocellular adenoma + hepatocellular carcinoma + neoplastic nodule, dosed 78 weeks, study length 91 weeks); 180 mg/kg/day (mouse, strain B6C3F1, females, in feed, site: liver, lesion: hepatocellular adenoma + hepatocellular carcinoma, dosed 78 weeks, study length 91 weeks); 217 mg/kg/day (mouse, strain B6C3F1, females, in feed, site: liver, lesion: hepatocellular carcinoma, dosed 78 weeks, study length 91 weeks). Also, the TD50 by setting is: (mouse, strain B6C3F1, females, in feed, site: lung, lesion: alveolar/bronchiolar adenoma + alveolar/bronchiolar carcinoma, dosed 78 weeks, study length 91 weeks) 7480 mg/kg/day; (mouse, strain B6C3F1, males, in feed, site: all sites + liver, lesion: hemangiosarcoma + hepatocellular adenoma + hepatocellular carcinoma, dosed 78 weeks, study length 91 weeks) 134 mg/kg/day; (mouse, strain B6C3F1, males, in feed, site: all sites, lesion: hemangiosarcoma, dosed 78 weeks, study length 91 weeks) 213 mg/kg/day; (mouse, strain B6C3F1, males, in feed, site: any site (literature study), lesion: several types, types named in the paper, dosed 78 weeks, study length 91 weeks) 132 mg/kg/day; (mouse, strain B6C3F1, males, in feed, site: liver, lesion: hepatocellular adenoma + hepatocellular carcinoma + neoplastic nodule, dosed 78 weeks, study length 91 weeks) 249 mg/kg/day; (mouse, strain B6C3F1, males, in feed, site: liver, lesion: hepatocellular adenoma + hepatocellular carcinoma, dosed 78 weeks, study length 91 weeks) 249 mg/kg/day. Moreover, the TD50 reads like this: (mouse, strain B6C3F1, males, in feed, site: liver, lesion: hepatocellular carcinoma, dosed 78 weeks, study length 91 weeks) 271 mg/kg/day; (rat, strain Fischer 344, males, in feed, site: adrenal gland, lesion: pheochromocytoma, dosed 78 weeks, study length 103 weeks) 714 mg/kg/day (inactive); (rat, strain Fischer 344, males, in feed, site: any site (literature study), lesion: several types, types named in the paper, dosed 78 weeks, study length 103 weeks) 1020 mg/kg/day; (rat, strain Fischer 344, males, in feed, site: liver, lesion: hepatocellular adenoma + hepatocellular carcinoma + neoplastic nodule, dosed 78 weeks, study length 103 weeks) 3340 mg/kg/day. Further, the carcinogen call (rat, strain Fischer 344, females, in feed, site: any site (literature study), lesion: several types, types named in the paper, dosed 78 weeks, study length 103 weeks) was “negative (inactive)”.
Regarding `NC(=O)N(CCCO)N=O`, the TD50 reads like this: (rat, strain Fischer 344, females, by gavage, site: forestomach, lesion: one or several types, types not named, dosed 30 weeks, study length 104 weeks) 1.27 mg/kg/day; (rat, strain Fischer 344, females, by gavage, site: liver, lesion: one or several types, types not named, dosed 30 weeks, study length 104 weeks) 1.27 mg/kg/day; (rat, strain Fischer 344, males, by gavage, site: forestomach, lesion: one or several types, types not named, dosed 30 weeks, study length 104 weeks) 1.98 mg/kg/day; (rat, strain Fischer 344, males, by gavage, site: forestomach, lesion: one or several types, types not named, dosed 40 weeks, study length 104 weeks) 0.866 mg/kg/day; (rat, strain Fischer 344, males, by gavage, site: liver, lesion: one or several types, types not named, dosed 30 weeks, study length 104 weeks) 3.78 mg/kg/day; (rat, strain Fischer 344, males, by gavage, site: liver, lesion: one or several types, types not named, dosed 40 weeks, study length 104 weeks) 1.24 mg/kg/day. Further, the TD50 was 1.79 mg/kg/day (rat, strain Fischer 344, males, by gavage, site: lung, lesion: several types, types named in the paper, dosed 30 weeks, study length 104 weeks); 0.668 mg/kg/day (rat, strain Fischer 344, males, by gavage, site: skin, lesion: several types, types named in the paper, dosed 30 weeks, study length 104 weeks); 0.888 mg/kg/day (rat, strain Fischer 344, males, by gavage, site: stomach, glandular, lesion: one or several types, types not named, dosed 30 weeks, study length 104 weeks).
Take `CC(=O)[O-].CC(=O)[O-].CC(=O)[O-].[Cr+3]`: the carcinogen call is “negative (inactive)” (mouse, strain Charles River CD1, females, in drinking water, site: any site (literature study), lesion: one or several types, types not named, dosed 145 weeks, study length 145 weeks); “negative (inactive)” (mouse, strain Charles River CD1, females, in drinking water, site: lung, lesion: one or several types, types not named, dosed 145 weeks, study length 145 weeks); “negative (inactive)” (mouse, strain Charles River CD1, males, in drinking water, site: any site (literature study), lesion: one or several types, types not named, dosed 139 weeks, study length 139 weeks); “negative (inactive)” (mouse, strain Charles River CD1, males, in drinking water, site: lung, lesion: one or several types, types not named, dosed 139 weeks, study length 139 weeks); “negative (inactive)” (rat, strain Long-Evans BLU:(LE), both sexes, in drinking water, site: liver, lesion: one or several types, types not named, dosed 182 weeks, study length 182 weeks). The TD50 reads like this: (rat, strain Long-Evans BLU:(LE), both sexes, in drinking water, site: any site (literature study), lesion: malignant tumor, dosed 182 weeks, study length 182 weeks) 7.62 mg/kg/day (inactive); (rat, strain Long-Evans BLU:(LE), both sexes, in drinking water, site: any site (literature study), lesion: one or several types, types not named, dosed 182 weeks, study length 182 weeks) 1.61 mg/kg/day (inactive).
In the case of `O=NN1CCN(N=O)CC1`, the TD50 reads like this: (mouse, strain C17, females, by gavage, site: forestomach, lesion: squamous-cell carcinoma, dosed 40 weeks, study length 104 weeks) 4.66 mg/kg/day; (mouse, strain C17, females, by gavage, site: uterus, lesion: reticulum-cell neoplasm, type A, dosed 40 weeks, study length 104 weeks) 4.13 mg/kg/day; (mouse, strain C17, males, by gavage, site: forestomach, lesion: squamous-cell carcinoma, dosed 40 weeks, study length 104 weeks) 2.01 mg/kg/day; (mouse, strain Swiss, males, in drinking water, site: any site (literature study), lesion: several types, types named in the paper, dosed 52 weeks, study length 100 weeks) 8.24 mg/kg/day; (mouse, strain Swiss, males, in drinking water, site: liver, lesion: hepatocellular carcinoma, dosed 52 weeks, study length 100 weeks) 51.9 mg/kg/day; (mouse, strain Swiss, males, in drinking water, site: lung, lesion: adenoma, dosed 52 weeks, study length 100 weeks) 8.7 mg/kg/day. The carcinogen call (mouse, strain Swiss, females, in drinking water, site: any site (literature study), lesion: several types, types named in the paper, dosed 52 weeks, study length 100 weeks) is “positive”.
